This note sets out measurements from US8829185B2 (Bayer HealthCare LLC, priority 2005, dated 2014).

For this assay, the target named is T1, FGFR1-GST (Homo sapiens, UniProt P11362).
T1 construct: GST; made in house
Kind of assay: FGFR-1 TR-FRET biochemical assay. As to the method: FGFR-1 TR-FRET Biochemical Assay
The FGFR-1 Assay was performed on half well 96-well opaque plates (Costar 3915) in a LANCE format. LANCE is a homogenous time resolved fluormetry based application available through Perkin Elmer. For this assay, 50 uL reactions were set up using: 0.6 uM ATP (Sigma), 25 nM poly GT-biotin (CIS BIO International), 2 nM Eu-labelled phospho-Tyr Ab (PY20 PerkinElmer), 10 nM Streptavidin-APC (Perkin Elmer), 5 nM FGFR1-GST (generated by DRT, Bayer Healthcare), 1% DMSO, 50 mM HEPES pH 7.5, 10 mM MgCl2, 0.1 mM EDTA, 0.015% Brij, 0.1 mg/ml BSA, 0.1% B-mercaptoethanol. All reactions were initiated with the addition of enzyme and were left to incubate for one hour at room temperature. Time-resolved fluorescence was then read on a Perkin Elmer VictorV Multilabel counter. The reading protocol uses an excitation wavelength at 340 nm and emission reads at both 615 and 665 nm. Signal was calculated as a ratio: (Fluorescence at 665 nm/Fluorescence at […])*10000 for each well. The background control used for this assay is the signal produced with all assay components excluding ATP. For IC50 generation, compounds were added prior to the enzyme initiation. A 50-fold stock plate was made with compounds serially diluted 1:5 in a 50% DMSO/50% dH2O solution. A 1 μL addition of the stock to the assay wells gave final compound concentrations ranging from 10 μM −0.128 nM in 1% DMSO. The data were expressed as percent inhibition: % inhibition=100−((Signal with inhibitor-background)/(Signal without inhibitor−background))*100.
(TR-FRET usually uses a lanthanide donor and a delayed reading to cut background.)

The term IC50 denotes the midpoint of a concentration-inhibition curve. Read a high IC50 as weaker potency in that assay.

T1 sequence (P11362 22-822): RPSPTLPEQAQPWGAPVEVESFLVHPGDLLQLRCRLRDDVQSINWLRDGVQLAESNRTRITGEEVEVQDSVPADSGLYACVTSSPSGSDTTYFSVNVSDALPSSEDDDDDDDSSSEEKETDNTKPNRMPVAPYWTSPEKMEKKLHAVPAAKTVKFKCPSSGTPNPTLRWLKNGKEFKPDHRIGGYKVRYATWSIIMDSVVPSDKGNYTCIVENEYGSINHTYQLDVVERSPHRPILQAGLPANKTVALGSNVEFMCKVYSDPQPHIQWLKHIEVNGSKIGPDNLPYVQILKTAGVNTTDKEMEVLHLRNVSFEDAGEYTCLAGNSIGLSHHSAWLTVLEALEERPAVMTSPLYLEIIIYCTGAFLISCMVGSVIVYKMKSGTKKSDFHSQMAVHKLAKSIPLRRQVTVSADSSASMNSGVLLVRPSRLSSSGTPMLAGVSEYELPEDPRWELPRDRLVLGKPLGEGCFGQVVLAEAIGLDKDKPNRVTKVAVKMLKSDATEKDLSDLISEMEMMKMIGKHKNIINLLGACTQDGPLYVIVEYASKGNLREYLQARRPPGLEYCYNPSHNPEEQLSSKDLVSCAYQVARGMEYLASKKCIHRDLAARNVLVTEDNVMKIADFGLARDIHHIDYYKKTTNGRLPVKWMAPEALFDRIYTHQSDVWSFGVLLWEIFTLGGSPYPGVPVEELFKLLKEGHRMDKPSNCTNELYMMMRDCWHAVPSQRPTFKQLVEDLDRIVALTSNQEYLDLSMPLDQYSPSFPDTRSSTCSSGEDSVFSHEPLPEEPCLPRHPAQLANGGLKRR

Regarding `Nc1ncnn2c(CN3CCOCC3)c(C(=O)C3CC3)c(-c3ccc(NC(=O)Nc4cc(C(F)(F)F)ccn4)cc3)c12` [Example 89, N-{4-[4-amino-6-(cyclopropylcarbonyl)-7-(morpholin-4-ylmethyl)pyrrolo[2,1-f][1,2,4]triazin-5-yl]phenyl}-N′-[4-(trifluoromethyl)pyridin-2-yl]urea], for the setting “bounds given in nM”, the IC50 was 10 to 100 nM.
The same measure, in the same setting: the same measure for `CCC(=O)c1c(-c2ccc(NC(=O)Nc3cc(C(F)(F)F)ccn3)cc2)c2c(N)ncnn2c1CN1CCOCC1` [Example 90, N-{4-[4-amino-7-(morpholin-4-ylmethyl)-6-propionylpyrrolo[2,1-f][1,2,4]triazin-5-yl]phenyl}-N′-[4-(trifluoromethyl)-pyridin-2-yl]urea]: 10 to 100 nM.
Turning to `CC(C)(C)C(=O)c1c(-c2ccc(NC(=O)Nc3cc(C(F)(F)F)ccn3)cc2)c2c(N)ncnn2c1CN1CCOCC1` [Example 92, N-{4-[4-amino-6-(2,2-dimethylpropanoyl)-7-(morpholin-4-ylmethyl)pyrrolo[2,1-f][1,2,4]triazin-5-yl]phenyl}-N′-[4-(trifluoromethyl)-pyridin-2-yl]urea], the IC50 runs as follows: (bounds given in nM) above 100 nM; (upper bound in μM) below 1000 nM.
For `CON(C)C(=O)c1c(-c2ccc(NC(=O)Nc3cc(C(F)(F)F)ccn3)cc2)c2c(N)ncnn2c1CN1CCN(C)CC1` [Example 94, 4-amino-N-methoxy-N-methyl-7-[(4-methylpiperazin-1-yl)methyl]-5-{4-[({[4-(trifluoromethyl)pyridin-2-yl]amino}-carbonyl)amino]-phenyl}pyrrolo[2,1-f][1,2,4]triazine-6-carboxamide], in that order: above 100 nM and below 1000 nM.
For `CC(=O)c1c(-c2ccc(NC(=O)Nc3cc(C(F)(F)F)ccn3)cc2)c2c(N)ncnn2c1CN1CCN(C)CC1` [Example 96, N-(4-{6-acetyl-4-amino-7-[(4-methylpiperazin-1-yl)methyl]pyrrolo[2,1-f][1,2,4]triazin-5-yl}phenyl)-N′-[4-(trifluoromethyl)-pyridin-2-yl]urea], the IC50 (bounds given in nM) was in the range of 10 to 100 nM.
Regarding `CON(C)C(=O)c1c(-c2ccc(NC(=O)Nc3cc(C(F)(F)F)ccn3)cc2)c2c(N)ncnn2c1CN1CCOCC1` [Example 97, 4-amino-N-methoxy-N-methyl-7-(morpholin-4-ylmethyl)-5-{4-[({[4-(trifluoromethyl)pyridin-2-yl]amino}carbonyl)-amino]phenyl}pyrrolo[2,1-f][1,2,4]triazine-6-carboxamide], the IC50 reads like this: (bounds given in nM) above 100 nM; (upper bound in μM) below 1000 nM.
`Nc1ncnn2c(CN3CCOCC3)c(C(F)F)c(-c3ccc(NC(=O)Nc4cc(C(F)(F)F)ccc4F)c(F)c3)c12` [Example 99, N-{4-[4-amino-6-(difluoromethyl)-7-(morpholin-4-ylmethyl)-pyrrolo[2,1-f][1,2,4]triazin-5-yl]-2-fluorophenyl}-N′-[2-fluoro-5-(trifluoromethyl)phenyl]urea] displayed a half-maximal inhibitory concentration (IC50) (bounds given in nM) of 10 to 100 nM.
The same measure, in the same setting: with `Nc1ncnn2c(CN3CCOCC3)c(/C=N/O)c(-c3ccc(NC(=O)Nc4cc(C(F)(F)F)ccc4F)cc3)c12` [Example 102, N-4-[4-amino-6-[(E)-(hydroxyimino)methyl]-7-(morpholin-4-ylmethyl)pyrrolo[2,1-f][1,2,4]triazin-5-yl]phenyl-N′-[2-fluoro-5-(trifluoromethyl)phenyl]urea] the figure was below 10 nM.
`CC(O)c1c(-c2ccc(NC(=O)Nc3cc(C(F)(F)F)ccc3F)cc2)c2c(N)ncnn2c1CN1CCOCC1` (stereo not shown) [Example 104, N-4-[4-amino-6-(1-hydroxyethyl)-7-(morpholin-4-ylmethyl)-pyrrolo[2,1-f][1,2,4]triazin-5-yl]phenyl-N′-[2-fluoro-5-(trifluoromethyl)-phenyl]urea]: the IC50 (bounds given in nM) was 10 to 100 nM.
As for `CC(=O)c1c(-c2ccc(NC(=O)Nc3cc(C(F)(F)F)ccc3F)cc2)c2c(N)ncnn2c1CN1CCOCC1` [Example 105, N-4-[6-acetyl-4-amino-7-(morpholin-4-ylmethyl)pyrrolo[2,1-f][1,2,4]triazin-5-yl]phenyl-N′-[2-fluoro-5-(trifluoromethyl)phenyl]urea], the 50% inhibitory concentration (IC50) (bounds given in nM) is below 10 nM.
The same measure, in the same setting: with `Nc1ncnn2c(CN3CCOCC3)c(C(O)C3CC3)c(-c3ccc(NC(=O)Nc4cc(C(F)(F)F)ccc4F)cc3)c12` (stereo not shown) [Example 106, N-4-[4-amino-6-[cyclopropyl(hydroxy)methyl]-7-(morpholin-4-ylmethyl)pyrrolo[2,1-f][1,2,4]triazin-5-yl]phenyl-N′-[2-fluoro-5-(trifluoromethyl)phenyl]urea] the figure was 10 to 100 nM.
On to `COCCNCc1c(-c2ccc(NC(=O)Nc3cc(C(F)(F)F)ccc3F)cc2)c2c(N)ncnn2c1CN1CCOCC1` [Example 108, N-4-[4-amino-6-[(2-methoxyethyl)amino]methyl-7-(morpholin-4-ylmethyl)pyrrolo[2,1-f][1,2,4]triazin-5-yl]phenyl-N′-[2-fluoro-5-(trifluoromethyl)phenyl]urea], for which the IC50 is above 100 nM (bounds given in nM) and below 1000 nM (upper bound in μM).
Turning to `CNCc1c(-c2ccc(NC(=O)Nc3cc(C(F)(F)F)ccc3F)cc2)c2c(N)ncnn2c1CN1CCOCC1` [Example 109, N-4-[4-amino-6-[(methylamino)methyl]-7-(morpholin-4-ylmethyl)pyrrolo[2,1-f][1,2,4]triazin-5-yl]phenyl-N′-[2-fluoro-5-(trifluoromethyl)phenyl]urea], the IC50 (bounds given in nM) is 10 to 100 nM.
As to `COCCN(C)Cc1c(-c2ccc(NC(=O)Nc3cc(C(F)(F)F)ccc3F)cc2)c2c(N)ncnn2c1CN1CCOCC1` [Example 110, N-4-[4-amino-6-[(2-methoxyethyl)(methyl)-amino]methyl-7-(morpholin-4-ylmethyl)pyrrolo[2,1-f][1,2,4]triazin-5-yl]phenyl-N′-[2-fluoro-5-(trifluoromethyl)phenyl]urea], the IC50 is, setting by setting: (bounds given in nM) above 100 nM; (upper bound in μM) below 1000 nM.
The molecule `Nc1ncnn2c(CN3CCOCC3)c(CO)c(-c3ccc(NC(=O)Nc4cc(C(F)(F)F)ccn4)c(F)c3)c12` [Example 114, N-{4-[4-amino-6-(hydroxymethyl)-7-(morpholin-4-ylmethyl)pyrrolo[2,1-f][1,2,4]triazin-5-yl]-2-fluorophenyl}-N′-[4-(trifluoromethyl)pyridin-2-yl]urea] gave an IC50 (bounds given in nM) of 10 to 100 nM.
The same measure, in the same setting: with `Nc1ncnn2c(CN3CCOCC3)c(C(F)F)c(-c3ccc(NC(=O)Nc4cc(C(F)(F)F)ccn4)c(F)c3)c12` [Example 116, N-{4-[4-amino-6-(difluoromethyl)-7-(morpholin-4-ylmethyl)-pyrrolo[2,1-f][1,2,4]triazin-5-yl]-2-fluorophenyl}-N′-[4-(trifluoromethyl)pyridin-2-yl]urea] the figure was below 10 nM.
Still for that read-out and setting: the same measure for `Cc1c(-c2ccc(NC(=O)Nc3cc(C(F)(F)F)ccc3F)cc2)c2c(N)ncnn2c1CN1CCCOCC1` [Example 117, N-{4-[4-amino-6-methyl-7-(1,4-oxazepan-4-ylmethyl)pyrrolo[2,1-f][1,2,4]triazin-5-yl]phenyl}-N′-[2-fluoro-5-(trifluoromethyl)phenyl]urea]: below 10 nM; for `Cc1cc(-c2c(C)c(CN3CCOCC3)n3ncnc(N)c23)ccc1NC(=O)Nc1cc(C(F)(F)F)ccn1` [Example 119, N-{4-[4-amino-6-methyl-7-(morpholin-4-ylmethyl)pyrrolo[2,1-f][1,2,4]triazin-5-yl]-2-methylphenyl}-N′-[4-(trifluoromethyl)pyridin-2-yl]urea]: below 10 nM.
For the setting “bounds given in nM”, `Cc1c(-c2cc(F)c(NC(=O)Nc3cc(C(F)(F)F)ccc3F)cc2F)c2c(N)ncnn2c1CN1CCOCC1` [Example 123, N-{4-[4-amino-6-methyl-7-(morpholin-4-ylmethyl)pyrrolo[2,1-f][1,2,4]triazin-5-yl]-2,5-difluorophenyl}-N′-[2-fluoro-5-(trifluoromethyl)-phenyl]urea] came in with a 50% inhibitory concentration (IC50) of 10 to 100 nM.
Still for that read-out and setting: with `Cc1cc(-c2c(C)c(CN3CCCOCC3)n3ncnc(N)c23)ccc1NC(=O)Nc1cc(C(F)(F)F)ccn1` [Example 124, N-{4-[4-amino-6-methyl-7-(1,4-oxazepan-4-ylmethyl)pyrrolo[2,1-f][1,2,4]triazin-5-yl]-2-methylphenyl}-N′-[4-(trifluoromethyl)pyridin-2-yl]urea] the figure was below 10 nM; with `Cc1cc(-c2c(C)c(CN3CCCOCC3)n3ncnc(N)c23)ccc1NC(=O)Nc1cc(C(F)(F)F)ccc1F` [Example 126, 1-{4-[4-amino-6-methyl-7-(1,4-oxazepan-4-ylmethyl)pyrrolo[2,1-f][1,2,4]triazin-5-yl]-2-methylphenyl}-3-[2-fluoro-5-(trifluoromethyl)-phenyl]urea], below 10 nM.
`COCc1c(-c2ccc(NC(=O)Nc3cc(C)ccc3F)c(F)c2)c2c(N)ncnn2c1CN1CCOCC1` [Example 131, N-{4-[4-amino-6-(methoxymethyl)-7-(morpholin-4-ylmethyl)-pyrrolo[2,1-f][1,2,4]triazin-5-yl]-2-fluorophenyl}-N′-(2-fluoro-5-methyl-phenyl)urea] yielded an IC50 (bounds given in nM) below 10 nM.
On to `COCc1c(-c2ccc(NC(=O)Nc3cc(C(C)(C)C)ccn3)c(F)c2)c2c(N)ncnn2c1CN1CCOCC1` [Example 135, N-{4-[4-amino-6-(methoxymethyl)-7-(morpholin-4-ylmethyl)-pyrrolo[2,1-f][1,2,4]triazin-5-yl]-2-fluorophenyl}-N′-(4-tert-butylpyridin-2-yl)urea], for which the IC50 (bounds given in nM) is below 10 nM.
